Patent US11505548B2, “Heterocyclic compounds and their use for treatment of helminthic infections and diseases” (Celgene Corporation, priority 2019, dated 2022)

Tested on: Onchocerca gutturosa Adult Male Worms
Experiment: Onchocerciasis in vitro screening model, worm motility score
Format: cell-based
Conditions: Onchocerca gutturosa; Table 1 O. gutturosa; levels A/B/C; motility or MTT readout not specified; read-out: O. gutturosa activity level (IC50 or MED)

**Q.** `Cc1cccnc1Nc1nc(-c2ccc(OC3CC4(CCN(C)C4)C3)cn2)ns1` (stereo not shown) [Compound 77, 3-(5-(6-methyl-6-azaspiro [3.4]octan-2-yloxy)pyridin-2-yl)-N-(3-methylpyridin-2-yl)-1,2,4-thiadiazol-5-amine] was tested. Which IC50 did it give?
**A.** Its IC50 is 500 to 5000 nM.

**Q.** `CN(C)c1cccnc1Nc1nc(-c2ccc(OC3CC3)cn2)ns1` [Compound 78, N2-(3-(5-cyclopropoxy-pyridin-2-yl)-1,2,4-thiadiazol-5-yl)-N3,N3-dimethyl-pyridine-2,3-diamine] was tested. Which IC50 did it give?
**A.** The IC50 was 500 to 5000 nM.

**Q.** For `Cc1cccnc1Nc1nc(-c2ccc(S(C)(=O)=O)cn2)ns1` [Compound 79, N-(3-methyl-pyridin-2-yl)-3-(5-(methyl-sulfonyl)pyridin-2-yl)-1,2,4-thiadiazol-5-amine], which IC50 is on record?
**A.** Its IC50 is 500 to 5000 nM.

**Q.** For `COc1cccnc1Nc1nc(-c2ccc(OC3CC3)cn2)ns1` [Compound 80, 3-(5-cycloprop-oxypyridin-2-yl)-N-(3-methoxypyridin-2-yl)-1,2,4-thiadiazol-5-amine], which IC50 is on record?
**A.** Its IC50 is 200 to 500 nM.

**Q.** `COc1cccnc1Nc1nc(-c2ccc(OC(C)C)cn2)ns1` [Compound 81, 3-(5-isopropoxy-pyridin-2-yl)-N-(3-methoxy-pyridin-2-yl)-1,2,4-thiadiazol-5-amine] was tested. Which IC50 did it give?
**A.** The IC50 was < 200 nM.

**Q.** With `Cc1cccnc1Nc1nc(-c2ccc(OC3CC4(C3)CN(C3CC3)C4)cn2)ns1` [Compound 82, 3-(5-(2-cyclo-propyl-2-azaspiro[3.3]heptan-6-yloxy)pyridin-2-yl)-N-(3-methylpyridin-2-yl)-1,2,4-thiadiazol-5-amine] as the compound, how does the IC50 read?
**A.** Its IC50 is 200 to 500 nM.

**Q.** For `Cc1cccnc1Nc1nc(-c2ccc(OC3CCN(C4CC4)CC3(F)F)cn2)ns1` (stereo not shown) [Compound 83, 3-(5-(1-cyclo-propyl-3,3-difluoro-piperidin-4-yloxy)pyridin-2-yl)-N-(3-methylpyridin-2-yl)-1,2,4-thiadiazol-5-amine], which IC50 is on record?
**A.** Its IC50 is 200 to 500 nM.

**Q.** For `FC(F)(F)c1cccnc1Nc1nc(-c2cc(C3CC3)ccn2)ns1` [Compound 84, 3-(4-cyclopropyl-pyridin-2-yl)-N-(3-(trifluoromethyl)pyridin-2-yl)-1,2,4-thiadiazol-5-amine], which IC50 is on record?
**A.** The IC50 was < 200 nM.

**Q.** With `FC(F)(F)c1ccnc(Nc2nc(-c3cc(C4CC4)ccn3)ns2)c1` [Compound 85, 3-(4-cyclopropyl-pyridin-2-yl)-N-(4-(trifluoromethyl)pyridin-2-yl)-1,2,4-thiadiazol-5-amine] as the compound, how does the IC50 read?
**A.** Its IC50 is < 200 nM.

**Q.** For `CC(C)c1ccnc(-c2nsc(Nc3cc(C(F)(F)F)ccn3)n2)c1` [Compound 86, 3-(4-isopropyl-pyridin-2-yl)-N-(4-(trifluoromethyl)pyridin-2-yl)-1,2,4-thiadiazol-5-amine], which IC50 is on record?
**A.** The IC50 was < 200 nM.

**Q.** How did the IC50 turn out when `CC(C)c1cccnc1Nc1nc(-c2ccc(OC3CCN(C4CC4)CC3(F)F)cn2)ns1` (stereo not shown) [Compound 87, 3-(5-(1-cyclo-propyl-3,3-difluoro-piperidin-4-yloxy)pyridin-2-yl)-N-(3-isopropylpyridin-2-yl)-1,2,4-thiadiazol-5-amine] was run?
**A.** Its IC50 is < 200 nM.

**Q.** For `Cc1cccnc1Nc1nc(-c2ccc(OC3CC4(C3)CN(C)C4)cn2)ns1` [Compound 88, 3-(5-(2-methyl-2-azaspiro[3.3]heptan-6-yloxy)pyridin-2-yl)-N-(3-methylpyridin-2-yl)-1,2,4-thiadiazol-5-amine], which IC50 is on record?
**A.** The IC50 was 500 to 5000 nM.

**Q.** For `CC(C)c1cccnc1Nc1nc(-c2ccc(O[C@@H]3CCN(C4CC4)C[C@@H]3F)cn2)ns1` [Compound 89, 3-(5-((3S,4R)-1-cyclopropyl-3-fluoro-piperidin-4-yloxy)pyridin-2-yl)-N-(3-isopropylpyridin-2-yl)-1,2,4-thiadiazol-5-amine], which IC50 is on record?
**A.** The IC50 was < 200 nM.

**Q.** With `CC(C)c1cccnc1Nc1nc(-c2ccc(O[C@@H]3CCN(C4CC4)C[C@H]3F)cn2)ns1` [Compound 90, 3-(5-((3R,4R)-1-cyclopropyl-3-fluoro-piperidin-4-yloxy)pyridin-2-yl)-N-(3-isopropylpyridin-2-yl)-1,2,4-thiadiazol-5-amine] as the compound, how does the IC50 read?
**A.** The IC50 was < 200 nM.

**Q.** `Cc1cccnc1Nc1nc(-c2ccc(O[C@@H]3CCN(C4CC4)C[C@H]3F)cn2)ns1` [Compound 91, 3-(5-((3R,4R)-1-cyclopropyl-3-fluoro-piperidin-4-yloxy)pyridin-2-yl)-N-(3-methylpyridin-2-yl)-1,2,4-thiadiazol-5-amine] was tested. Which IC50 did it give?
**A.** The IC50 was < 200 nM.

**Q.** With `Cc1cccnc1Nc1nc(-c2ccc(OC3CCN(C4CC4)C[C@@H]3F)cn2)ns1` (stereo partly drawn) [Compound 92, 3-(5-((3S)-1-cyclopropyl-3-fluoro-piperidin-4-yloxy)pyridin-2-yl)-N-(3-methylpyridin-2-yl)-1,2,4-thiadiazol-5-amine] as the compound, how does the IC50 read?
**A.** Its IC50 is < 200 nM.

**Q.** Which IC50 does the source give for `Cc1cccnc1Nc1nc(-c2ncc(OC3CC3)cc2C(F)(F)F)ns1` [Compound 93, 3-(5-cyclo-propoxy-3-(trifluoromethyl)pyridin-2-yl)-N-(3-methyl-pyridin-2-yl)-1,2,4-thiadiazol-5-amine] here?
**A.** The IC50 was 500 to 5000 nM.

**Q.** With `CC(C)Oc1cccnc1-c1nsc(Nc2cc(N3CCCC3)ccn2)n1` [Compound 94, 3-(3-isopropoxy-pyridin-2-yl)-N-(4-(pyrrolidin-1-yl)pyridin-2-yl)-1,2,4-thiadiazol-5-amine] as the compound, how does the IC50 read?
**A.** The IC50 was < 200 nM.

**Q.** With `CC(C)c1cnc(Nc2nc(-c3ccc(OC4CC4)cn3)ns2)cc1C(F)(F)F` [Compound 95, 3-(5-cyclopropoxy-pyridin-2-yl)-N-(5-isopropyl-4-(trifluoromethyl)pyridin-2-yl)-1,2,4-thiadiazol-5-amine] as the compound, how does the IC50 read?
**A.** The IC50 was < 200 nM.

**Q.** How did the IC50 turn out when `CC(C)c1cnc(Nc2nc(-c3cc(OC4CC4)ccn3)ns2)cc1C(F)(F)F` [Compound 96, 3-(4-cycloprop-oxypyridin-2-yl)-N-(5-isopropyl-4-(trifluoromethyl)pyridin-2-yl)-1,2,4-thiadiazol-5-amine] was run?
**A.** The IC50 was < 200 nM.

**Q.** With `CC(C)c1cnc(Nc2nc(-c3ncccc3OC3CC3)ns2)cc1C(F)(F)F` [Compound 97, 3-(3-cycloprop-oxypyridin-2-yl)-N-(5-isopropyl-4-(trifluoromethyl)pyridin-2-yl)-1,2,4-thiadiazol-5-amine] as the compound, how does the IC50 read?
**A.** Its IC50 is < 200 nM.

**Q.** With `Cc1cccnc1N(C)c1nc(-c2ccc(OC(C)C)cn2)ns1` [Compound 98, 3-(5-isopropoxy-pyridin-2-yl)-N-methyl-N-(3-methylpyridin-2-yl)-1,2,4-thiadiazol-5-amine] as the compound, how does the IC50 read?
**A.** The IC50 was 200 to 500 nM.

**Q.** Which IC50 does the source give for `FC(F)(F)c1ccnc(-c2nsc(Nc3cc(N4CCCC4)ccn3)n2)c1` [Compound 99, N-(4-(pyrrolidin-1-yl)pyridin-2-yl)-3-(4-(trifluoromethyl)pyridin-2-yl)-1,2,4-thiadiazol-5-amine] here?
**A.** The IC50 was 500 to 5000 nM.

**Q.** With `Cc1cccnc1Nc1nc(-c2ccc(S(=O)(=O)C3CCN(C)CC3)cn2)ns1` [Compound 100, 3-(5-(1-methylpiperidin-4-ylsulfonyl)pyridin-2-yl)-N-(3-methylpyridin-2-yl)-1,2,4-thiadiazol-5-amine] as the compound, how does the IC50 read?
**A.** Its IC50 is 200 to 500 nM.

**Q.** How did the IC50 turn out when `CN(C)c1cccnc1Nc1nc(-c2ccc(OCC(F)(F)F)cn2)ns1` [Compound 101, N3,N3-dimethyl-N2-(3-(5-(2,2,2-trifluoroethoxy)pyridin-2-yl)-1,2,4-thiadiazol-5-yl)pyridine-2,3-diamine] was run?
**A.** Its IC50 is 200 to 500 nM.

**Q.** How did the IC50 turn out when `Cc1cccnc1Nc1nc(-c2cc(C(F)(F)F)c(OC3CC3)cn2)ns1` [Compound 102, 3-(5-cyclo-propoxy-4-(trifluoromethyl)pyridin-2-yl)-N-(3-methyl-pyridin-2-yl)-1,2,4-thiadiazol-5-amine] was run?
**A.** Its IC50 is 500 to 5000 nM.

**Q.** For `Cc1cccnc1Nc1nc(-c2ccc(OC3CC3)cn2)n(C)n1` [Compound 103, N-(5-(5-cyclopropoxy-pyridin-2-yl)-1-methyl-1H-1,2,4-triazol-3-yl)-3-methyl-pyridin-2-amine], which IC50 is on record?
**A.** Its IC50 is < 200 nM.

**Q.** Which IC50 does the source give for `Cc1cccnc1Nc1nnc(-c2cc(C(C)C)ccn2)o1` [Compound 104, 5-(4-isopropyl-pyridin-2-yl)-N-(3-methyl-pyridin-2-yl)-1,3,4-oxadiazol-2-amine] here?
**A.** The IC50 was < 200 nM.

**Q.** With `COc1cccnc1Nc1nc(-c2ccc(OCC(F)(F)F)cn2)ns1` [Compound 105, N-(3-methoxy-pyridin-2-yl)-3-(5-(2,2,2-trifluoroethoxy)pyridin-2-yl)-1,2,4-thiadiazol-5-amine] as the compound, how does the IC50 read?
**A.** Its IC50 is < 200 nM.

**Q.** How did the IC50 turn out when `O=C(NCC1CC1)c1ccc(Nc2nc(-c3ccc(OC4CC4)cn3)ns2)nc1` [Compound 106, 6-(3-(5-cyclo-propoxypyridin-2-yl)-1,2,4-thiadiazol-5-ylamino)-N-(cyclopropyl-methyl) nicotinamide] was run?
**A.** Its IC50 is 500 to 5000 nM.

**Q.** For `O=C(NC1CC(F)(F)C1)c1ccc(Nc2nc(-c3ccc(OC4CC4)cn3)ns2)nc1` [Compound 107, 6-(3-(5-cyclo-propoxypyridin-2-yl)-1,2,4-thiadiazol-5-ylamino)-N-(3,3-difluoro-cyclobutyl) nicotinamide], which IC50 is on record?
**A.** The IC50 was 500 to 5000 nM.

**Q.** How did the IC50 turn out when `CNc1cccnc1Nc1nc(-c2ccc(OC(C)C)cn2)ns1` [Compound 108, N2-(3-(5-isopropoxypyridin-2-yl)-1,2,4-thiadiazol-5-yl)-N3-methyl-pyridine-2,3-diamine] was run?
**A.** Its IC50 is 200 to 500 nM.

**Q.** With `CC(C)c1cccnc1Nc1nc(-c2cc(C(F)(F)F)c(OC3CC3)cn2)ns1` [Compound 109, 3-(5-cyclopropoxy-4-(trifluoromethyl)pyridin-2-yl)-N-(3-isopropyl-pyridin-2-yl)-1,2,4-thiadiazol-5-amine] as the compound, how does the IC50 read?
**A.** The IC50 was < 200 nM.

**Q.** `Cc1cccnc1Nc1nc(-c2cc(C(F)(F)F)c(OCC3CC3)cn2)ns1` [Compound 110, 3-(5-(cyclo-propylmethoxy)-4-(trifluoromethyl)pyridin-2-yl)-N-(3-methyl-pyridin-2-yl)-1,2,4-thiadiazol-5-amine] was tested. Which IC50 did it give?
**A.** The IC50 was < 200 nM.

**Q.** How did the IC50 turn out when `CN(C)c1cccnc1Nc1nc(-c2cc(C(F)(F)F)c(OC3CC3)cn2)ns1` [Compound 111, N2-(3-(5-cyclo-propoxy-4-(trifluoromethyl)pyridin-2-yl)-1,2,4-thiadiazol-5-yl)-N3,N3-dimethyl-pyridine-2,3-diamine] was run?
**A.** The IC50 was < 200 nM.

**Q.** With `CC(=O)N1CCN(c2ccc(Nc3nc(-c4ccc(OC5CC5)cn4)ns3)nc2)CC1` [Compound 112, 1-(4-(6-(3-(5-cyclopropoxy-pyridin-2-yl)-1,2,4-thiadiazol-5-ylamino)pyridin-3-yl)piperazin-1-yl) ethanone] as the compound, how does the IC50 read?
**A.** The IC50 was 200 to 500 nM.

**Q.** `O=C(CC(F)(F)F)N1CCN(c2ccc(Nc3nc(-c4ccc(OC5CC5)cn4)ns3)nc2)CC1` [Compound 113, 1-(4-(6-(3-(5-cycloprop-oxypyridin-2-yl)-1,2,4-thiadiazol-5-ylamino)pyridin-3-yl)piperazin-1-yl)-3,3,3-trifluoro-propan-1-one] was tested. Which IC50 did it give?
**A.** Its IC50 is 500 to 5000 nM.
